In DBAASP:
In brackets after ≈: the same amount, converted by molar mass. One block for each molecule: values may come before it.

Tests used:
Experiment in all cases: ≥ marks a high value that may be exact or a test limit, other limits are often not marked, values filed in µg/mL are converted to µM
[1] = test system: Bacillus subtilis DSM 347
[2] = test system: Franconibacter helveticus DSM 18396
[3] = test system: Kocuria rhizophila DSM 348
[4] = test system: Escherichia coli DH5alpha
[5] = test system: Staphylococcus aureus ATCC 25923
[6] = test system: Bacillus cereus ATCC 11778
[7] = test system: Pseudomonas aeruginosa ATCC 9027
[8] = test system: Escherichia coli ATCC 35218
[9] = test system: Xanthomonas axonopodis pv. glycines ISBF 327
[10] = test system: Escherichia coli ATCC 25922
[11] = test system: Enterococcus faecalis CGMCC 1.595
[12] = test system: Lactococcus lactis AS1.1690
[13] = test system: Enterococcus faecium CGMCC 1.2334
[14] = test system: Pseudomonas aeruginosa CGMCC 1.860
[15] = test system: Staphylococcus aureus AS1.72
Escherichia coli AS1.349 = test system: Escherichia coli AS1.349
Bacillus cereus AS1.126 = test system: Bacillus cereus AS1.126
[16] = test system: Pseudomonas corrugata DSM 7228
Cladosporium herbarum = test system: Cladosporium herbarum
[17] = test system: Pseudomonas syringae pv. tomato DC3000
[18] = test system: Clavibacter michiganensis subsp. michiganensis DSM 46294
[19] = test system: Xanthomonas vesicatoria DSM 50861
[20] = test system: Pseudomonas syringae pv. syringae DSM 10604
[21] = test system: Pectobacterium carotovorum subsp. carotovorum DSM 30168
Alternaria alternata = test system: Alternaria alternata
Botrytis cinerea = test system: Botrytis cinerea

Compound: CC[C@H](C)[C@H](NC(=O)CN)C(=O)NCC(=O)N[C@@H](CCCCN)C(=O)N[C@@H](C)C(=O)N[C@@H](CC(C)C)C(=O)N[C@@H](Cc1cnc[nH]1)C(=O)N[C@@H](CO)C(=O)N[C@@H](C)C(=O)N[C@@H](CCCCN)C(=O)N[C@@H](CCCCN)C(=O)N[C@@H](Cc1ccccc1)C(=O)NCC(=O)N[C@@H](CCCCN)C(=O)N[C@@H](C)C(=O)N[C@@H](Cc1ccccc1)C(=O)N[C@H](C(=O)NCC(=O)N[C@@H](CCC(=O)O)C(=O)N[C@H](C(=O)N[C@@H](CCSC)C(=O)N[C@@H](CC(N)=O)C(=O)N[C@@H](CO)C(=O)O)[C@@H](C)CC)C(C)C [GIGKALHSAKKFGKAFVGEIMNS]
MIC [1]: ≥ 32 µM
MIC [2]: ≥ 128 µM
MIC [3]: ≥ 256 µM
MIC [4]: ≥ 128 µM

Compound: CC[C@H](C)[C@H](NC(=O)CN)C(=O)NCC(=O)N[C@@H](CCCCN)C(=O)N[C@@H](Cc1ccccc1)C(=O)N[C@@H](CC(C)C)C(=O)N[C@@H](Cc1cnc[nH]1)C(=O)N[C@@H](CO)C(=O)N[C@@H](C)C(=O)N[C@@H](CCCCN)C(=O)N[C@@H](CCCCN)C(=O)N[C@@H](Cc1ccccc1)C(=O)N[C@@H](C)C(=O)N[C@@H](CCCCN)C(=O)N[C@@H](C)C(=O)N[C@@H](Cc1ccccc1)C(=O)N[C@H](C(=O)NCC(=O)N[C@@H](CCC(=O)O)C(=O)N[C@H](C(=O)N[C@@H](CCSC)C(=O)N[C@@H](CC(N)=O)C(=O)N[C@@H](CO)C(=O)O)[C@@H](C)CC)C(C)C [GIGKFLHSAKKFAKAFVGEIMNS]
MIC [1]: 1 µM (≈ 2.48 µg/mL)
MIC [2]: 4 µM (≈ 9.92 µg/mL)
MIC [3]: 8 µM (≈ 19.8 µg/mL)
MIC [4]: 16 µM (≈ 39.7 µg/mL)

Compound: CC(C)C[C@H](NC(=O)[C@@H](NC(=O)[C@H](CCCCN)NC(=O)[C@@H](N)CCCCN)C(C)C)C(=O)N[C@@H](CCCCN)C(=O)N[C@@H](C)C(=O)N[C@@H](C)C(=O)N[C@@H](C)C(N)=O [KKVLKAAA]
MIC [5]: > 50 µM
MIC [6]: ≥ 50 µM
MIC [7]: > 50 µM
MIC [8]: ≥ 50 µM

Compound: CC(C)C[C@H](NC(=O)[C@H](CCC(N)=O)NC(=O)[C@H](CCCN=C(N)N)NC(=O)[C@H](CC(C)C)NC(=O)[C@H](CC(C)C)NC(=O)[C@@H](NC(=O)[C@H](CC(C)C)NC(=O)[C@@H](NC(=O)[C@H](CCCN=C(N)N)NC(=O)[C@H](CCCN=C(N)N)NC(=O)[C@H](CCCCN)NC(=O)[C@H](C)NC(=O)[C@@H](N)CC(C)C)C(C)C)[C@@H](C)O)C(=O)N[C@@H](CCCN=C(N)N)C(=O)N[C@@H](CCCN=C(N)N)C(=O)N[C@H](C(=O)N[C@@H](CO)C(=O)N1CCC[C@H]1C(=O)N[C@@H](CO)C(=O)N[C@@H](CO)C(N)=O)C(C)C [LAKRRVLTLLRQLRRVSPSS]
MIC [9]: 2 µM (≈ 4.7 µg/mL)
MIC [10]: 14 µM (≈ 32.9 µg/mL)

Other lines, results leading:

MIC [9]: ≥ 42 µM
Compound: CC[C@H](C)[C@H](NC(=O)[C@H](C)NC(=O)[C@@H]1CCCN1C(=O)[C@H](CCCN=C(N)N)NC(=O)[C@@H](N)CC(C)C)C(=O)N[C@@H](CC(C)C)C(=O)N[C@H](C(=O)N[C@@H](CCCN=C(N)N)C(=O)N[C@H](C(=O)N[C@@H](CCCCN)C(=O)NCC(=O)N[C@@H](CCCCN)C(=O)NCC(=O)N[C@@H](CC(C)C)C(N)=O)C(C)C)C(C)C [LRPAILVRVKGKGL]

MIC [11]: 3.13 µM (≈ 4.5 µg/mL)
MIC [12]: 6.25 µM (≈ 8.98 µg/mL)
MIC [13]: 6.25 µM (≈ 8.98 µg/mL)
MIC [14]: 3.13 µM (≈ 4.5 µg/mL)
MIC [15]: 12.5 µM (≈ 18 µg/mL)
MIC (Escherichia coli AS1.349): 6.25 µM (≈ 8.98 µg/mL)
MIC (Bacillus cereus AS1.126): 6.25 µM (≈ 8.98 µg/mL)
Compound: NC(N)=NCCC[C@H](NC(=O)[C@H](Cc1cnc[nH]1)NC(=O)[C@H](Cc1c[nH]c2ccccc12)NC(=O)[C@H](Cc1ccccc1)NC(=O)[C@H](CCCN=C(N)N)NC(=O)[C@H](CCCN=C(N)N)NC(=O)[C@H](Cc1c[nH]c2ccccc12)NC(=O)[C@H](Cc1cnc[nH]1)NC(=O)[C@@H](N)CCCN=C(N)N)C(=O)O [RHWRRFWHR]

MIC [16]: 26.6 µM (≈ 40 µg/mL)
MIC (Cladosporium herbarum): 26.6 µM (≈ 40 µg/mL)
MIC [17]: 3.32 µM (≈ 5 µg/mL)
MIC [18]: 13.3 µM (≈ 20 µg/mL)
MIC [19]: 26.6 µM (≈ 40 µg/mL)
MIC [20]: 26.6 µM (≈ 40 µg/mL)
MIC [21]: 26.6 µM (≈ 40 µg/mL)
MIC (Alternaria alternata): ≥ 66.4 µM
MIC (Botrytis cinerea): ≥ 66.4 µM
Compound: CC(C)[C@H](NC(=O)[C@H](C)NC(=O)[C@H](CCCN=C(N)N)NC(=O)[C@H](CCCCN)NC(=O)[C@H](C)NC(=O)[C@H](Cc1ccccc1)NC(=O)[C@H](CCCN=C(N)N)NC(=O)[C@H](C)NC(=O)[C@H](Cc1ccccc1)NC(=O)[C@H](CCCN=C(N)N)NC(=O)[C@H](CCCCN)NC(=O)[C@@H](N)CCCN=C(N)N)C(N)=O [RKRFARFAKRAV]
